“And” between values parts separate entries of the source, which are not always exact repeats. Equal values may be shown once. Read-outs that look alike come from different tables or passages of the source.
Assays:
CDK12–cyclin K and DDB1 = target: T1, CDK12–cyclin K and DDB1 (Homo sapiens, UniProt Q16531+Q9NYV4, K965R); test: TR-FRET ternary complex formation assay (compound titration); type: binding; conditions: for EC50: read-out: TR-FRET EC50
T1 construct: His6–CDK12 (a.a. 713–1,052); full-length or beta-propeller B domain deletion (ΔBPB: a.a. 396–705 deleted) constructs of His6–DDB1ΔBPB, StrepII–Avi–DDB1, or His6–Spy–DDB1; made in house; host or cells: Trichoplusia ni High Five insect cells (baculovirus)
Outline: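 Delayed (70 μs) time-resolved read; FRET computed as 520 nm over 490 nm emission.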

[1] = tested on: cyclin K–eGFP degradation reporter; test: Cyclin K reporter stability analysis (dual-color cyclin K–eGFP reporter); type: cell-based, human; conditions: source data sheet correlations; read-out: DC50
Outline: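 First, reporter-bearing HEK293T–Cas9 cells are plated at 1 × 10^6 ml^−1. Next, drug or vehicle is added for 5 h. Finally, geometric-mean eGFP and mCherry signals of round, mCherry-positive cells are measured cytometrically, and their ratio is referenced to the DMSO average.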

HEK293T cells = test: Drug sensitivity assay (CellTiter-Glo viability) with or without MLN4924 pretreatment; type: cell-based, human; conditions: Supplementary Table 2
Outline: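 Viability of HEK293T–Cas9 cells was compared after 3-day drug treatment with or without 100 nM MLN4924 pretreatment (2 h, versus DMSO). Values are CellTiter-Glo signals relative to DMSO controls.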

CDK12–cyclin K = CDK12–cyclin K (Homo sapiens, UniProt Q9NYV4); test: Lanthascreen kinase binding assay, CDK12; conditions: for Lanthascreen raw signal, sheet CDK12: series r37, duplicates
Method: (§1) Lanthascreen experiments were performed using commercially available reagents (Thermo Fisher) and according to the manufacturer’s instructions.

CDK9–cyclin T = target: T2, CDK9–cyclin T (Homo sapiens, UniProt P50750); test: Lanthascreen kinase binding assay, CDK9; conditions: for Lanthascreen TR-FRET signal (raw ratio), sheet CDK9: third titration set (r25), duplicates
T2 construct: purchased Thermo Fisher
Method: as §1

CDK2–cyclin A = target: T3, CDK2–cyclin A (Homo sapiens, UniProt P24941); test: Lanthascreen kinase binding assay, CDK2; conditions: for Lanthascreen signal, sheet CDK2: raw replicates, experiment r36-r46
T3 construct: purchased Thermo Fisher
Method: as §1

T2 sequence (P50750 whole entry): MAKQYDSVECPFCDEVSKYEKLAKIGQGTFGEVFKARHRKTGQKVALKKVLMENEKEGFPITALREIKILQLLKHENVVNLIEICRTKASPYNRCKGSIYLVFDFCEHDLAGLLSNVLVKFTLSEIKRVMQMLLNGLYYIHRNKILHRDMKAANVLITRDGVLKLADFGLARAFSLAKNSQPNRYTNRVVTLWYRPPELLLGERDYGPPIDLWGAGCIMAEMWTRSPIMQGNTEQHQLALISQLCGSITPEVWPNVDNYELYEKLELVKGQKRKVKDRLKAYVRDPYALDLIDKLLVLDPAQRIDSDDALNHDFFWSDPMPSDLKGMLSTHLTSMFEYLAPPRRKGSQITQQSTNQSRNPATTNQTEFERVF
T2 sequence (O60563 whole entry partner): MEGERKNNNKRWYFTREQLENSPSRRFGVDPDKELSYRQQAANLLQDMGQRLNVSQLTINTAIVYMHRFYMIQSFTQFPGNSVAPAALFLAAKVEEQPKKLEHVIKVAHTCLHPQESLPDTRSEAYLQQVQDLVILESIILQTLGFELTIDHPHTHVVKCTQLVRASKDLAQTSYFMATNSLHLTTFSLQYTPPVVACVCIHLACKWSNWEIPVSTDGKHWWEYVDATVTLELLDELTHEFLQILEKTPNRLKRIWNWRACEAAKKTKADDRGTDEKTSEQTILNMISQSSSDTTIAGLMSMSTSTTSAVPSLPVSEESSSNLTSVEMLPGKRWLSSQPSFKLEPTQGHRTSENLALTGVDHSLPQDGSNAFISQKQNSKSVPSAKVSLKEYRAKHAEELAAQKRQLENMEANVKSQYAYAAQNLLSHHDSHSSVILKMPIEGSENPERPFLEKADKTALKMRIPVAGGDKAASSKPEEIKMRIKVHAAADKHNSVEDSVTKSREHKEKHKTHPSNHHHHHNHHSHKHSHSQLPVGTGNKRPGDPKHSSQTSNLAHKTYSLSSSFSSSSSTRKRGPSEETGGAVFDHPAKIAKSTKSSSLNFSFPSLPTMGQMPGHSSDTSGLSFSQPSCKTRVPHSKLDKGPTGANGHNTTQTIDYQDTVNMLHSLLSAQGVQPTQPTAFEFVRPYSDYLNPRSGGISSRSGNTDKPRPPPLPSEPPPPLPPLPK
T1 sequence (Q9NYV4 713-1052 K965R): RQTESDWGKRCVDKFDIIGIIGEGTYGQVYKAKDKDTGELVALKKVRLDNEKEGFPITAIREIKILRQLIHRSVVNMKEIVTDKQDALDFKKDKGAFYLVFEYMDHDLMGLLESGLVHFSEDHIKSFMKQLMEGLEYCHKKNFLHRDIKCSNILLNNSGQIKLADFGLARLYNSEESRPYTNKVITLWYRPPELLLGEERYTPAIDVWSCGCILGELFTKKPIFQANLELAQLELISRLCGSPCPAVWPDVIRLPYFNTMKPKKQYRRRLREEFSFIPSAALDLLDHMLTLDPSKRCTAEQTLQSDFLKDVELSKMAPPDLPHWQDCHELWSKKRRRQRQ
T1 sequence (O75909 1-267 partner): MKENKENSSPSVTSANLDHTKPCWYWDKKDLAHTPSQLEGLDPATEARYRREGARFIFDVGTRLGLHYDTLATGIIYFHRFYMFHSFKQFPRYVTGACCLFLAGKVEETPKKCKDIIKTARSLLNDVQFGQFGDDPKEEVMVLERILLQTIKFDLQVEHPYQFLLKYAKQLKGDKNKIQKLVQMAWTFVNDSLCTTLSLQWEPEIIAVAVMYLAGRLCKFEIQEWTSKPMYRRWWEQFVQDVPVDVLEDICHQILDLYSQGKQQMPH
T1 sequence (Q16531 whole entry): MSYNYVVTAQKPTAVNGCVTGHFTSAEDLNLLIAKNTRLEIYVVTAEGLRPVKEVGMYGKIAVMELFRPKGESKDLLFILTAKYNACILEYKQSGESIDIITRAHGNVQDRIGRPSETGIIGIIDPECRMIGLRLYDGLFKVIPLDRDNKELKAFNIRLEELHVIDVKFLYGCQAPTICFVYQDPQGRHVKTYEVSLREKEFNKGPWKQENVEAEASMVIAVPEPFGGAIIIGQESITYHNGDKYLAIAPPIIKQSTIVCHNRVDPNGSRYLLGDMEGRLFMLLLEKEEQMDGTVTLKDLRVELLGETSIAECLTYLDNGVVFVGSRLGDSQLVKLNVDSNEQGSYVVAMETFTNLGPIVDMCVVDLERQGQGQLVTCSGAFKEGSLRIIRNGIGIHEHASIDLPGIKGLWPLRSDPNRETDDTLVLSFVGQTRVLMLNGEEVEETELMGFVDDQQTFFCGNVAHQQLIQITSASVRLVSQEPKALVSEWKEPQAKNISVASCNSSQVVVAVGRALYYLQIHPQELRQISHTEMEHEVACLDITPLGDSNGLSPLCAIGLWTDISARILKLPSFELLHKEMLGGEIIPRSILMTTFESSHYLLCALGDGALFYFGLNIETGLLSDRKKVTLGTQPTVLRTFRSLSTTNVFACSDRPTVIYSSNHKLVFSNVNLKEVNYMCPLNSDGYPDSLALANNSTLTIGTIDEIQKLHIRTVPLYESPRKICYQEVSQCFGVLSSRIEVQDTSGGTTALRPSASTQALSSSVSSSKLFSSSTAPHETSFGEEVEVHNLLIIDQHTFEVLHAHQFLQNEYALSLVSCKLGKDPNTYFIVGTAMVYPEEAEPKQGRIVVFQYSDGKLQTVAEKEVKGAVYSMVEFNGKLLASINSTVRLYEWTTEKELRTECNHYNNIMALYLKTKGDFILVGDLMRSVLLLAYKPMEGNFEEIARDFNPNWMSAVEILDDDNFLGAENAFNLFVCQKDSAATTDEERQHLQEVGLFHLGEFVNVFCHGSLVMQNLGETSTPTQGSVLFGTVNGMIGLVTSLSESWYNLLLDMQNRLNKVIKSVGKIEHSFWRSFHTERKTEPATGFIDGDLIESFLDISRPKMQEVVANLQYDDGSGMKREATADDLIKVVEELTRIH
CDK12–cyclin K, sequence (Q9NYV4 713-1052): as the sequence (Q9NYV4 713-1052 K965R) above, with R253K counted along it
CDK12–cyclin K, sequence (O75909 1-267 partner limits assumed): as the sequence (O75909 1-267 partner) above

TR-FRET signal at compound concentration 0.468 nM (CDK12–cyclin K and DDB1; compound concentration 0.468 nM, raw replicate titration data): 0.2789 and 0.2869 and 0.2441 and 0.2388 | TR-FRET signal at compound concentration 2.16 nM (CDK12–cyclin K and DDB1; compound concentration 2.16 nM, raw replicate titration data): 0.4628 and 0.4735 and 0.4069 and 0.4155 | TR-FRET signal at compound concentration 3.6 nM (CDK12–cyclin K and DDB1; compound concentration 3.6 nM, raw replicate titration data): 0.8592 and 0.9781 and 0.8008 and 0.8631 | TR-FRET signal at compound concentration 7.92001 nM (CDK12–cyclin K and DDB1; compound concentration 7.92001 nM, raw replicate titration data): 1.943 and 2.09 and 1.796 and 1.964 | TR-FRET signal at compound concentration 15.84 nM (CDK12–cyclin K and DDB1; compound concentration 15.84 nM, raw replicate titration data): 3.635 and 3.77 and 3.448 and 3.586 | TR-FRET signal at compound concentration 30.96 nM (CDK12–cyclin K and DDB1; compound concentration 30.96 nM, raw replicate titration data): 4.1538 and 4.3056 and 4.1745 and 4.207 | TR-FRET signal at compound concentration 62.6401 nM (CDK12–cyclin K and DDB1; compound concentration 62.6401 nM, raw replicate titration data): 4.1015 and 4.249 and 4.2539 and 4.27 | TR-FRET signal at compound concentration 125.28 nM (CDK12–cyclin K and DDB1; compound concentration 125.28 nM, raw replicate titration data): 4.175 and 4.298 and 4.2336 and 4.275 | TR-FRET signal at compound concentration 244.8 nM (CDK12–cyclin K and DDB1; compound concentration 244.8 nM, raw replicate titration data): 4.152 and 4.298 and 4.309 and 4.217 | TR-FRET signal at compound concentration 993.601 nM (CDK12–cyclin K and DDB1; compound concentration 993.601 nM, raw replicate titration data): 4.169 and 4.339 and 4.296 and 4.306 | TR-FRET signal at compound concentration 2001.6 nM (CDK12–cyclin K and DDB1; compound concentration 2001.6 nM, raw replicate titration data): 4.114 and 4.419 and 4.291 and 4.3409 | EC50 (CDK12–cyclin K and DDB1; in vitro complex formation, 50 nM CDK12–cyclin K, 100 nM DDB1, text and figures): 9 ± 0.2 nM | EC50 (CDK12–cyclin K and DDB1; source data sheet correlations): 8.77 nM | DC50 [1]: 13 nM | CDK inhibitory selectivity, result in words (CDK12–cyclin K; Lanthascreen across CDK2/9/12): CDK12 selective | IC50 (CDK12–cyclin K; Supplementary Table 2, read-out: Lanthascreen IC50 [nM] CDK12): 289 nM | Lanthascreen raw signal, sheet CDK12 (CDK12–cyclin K; compound 0.038147 nM): 0.01361 and 0.01362 | Lanthascreen raw signal, sheet CDK12 (CDK12–cyclin K; compound 0.152588 nM): 0.01347 and 0.01332 | Lanthascreen raw signal, sheet CDK12 (CDK12–cyclin K; compound 0.610352 nM): 0.0127 and 0.0128 | Lanthascreen raw signal, sheet CDK12 (CDK12–cyclin K; compound 9.76563 nM): 0.01118 and 0.01013 | Lanthascreen raw signal, sheet CDK12 (CDK12–cyclin K; compound 39.0625 nM): 0.009017 and 0.009485 | Lanthascreen raw signal, sheet CDK12 (CDK12–cyclin K; compound 156.25 nM): 0.008554 and 0.0083 | Lanthascreen raw signal, sheet CDK12 (CDK12–cyclin K; compound 625 nM): 0.007301 and 0.007453 | Lanthascreen raw signal, sheet CDK12 (CDK12–cyclin K; compound 2500 nM): 0.006348 and 0.005959 | Lanthascreen raw signal, sheet CDK12 (CDK12–cyclin K; compound 10000 nM): 0.004442 and 0.004613 | IC50 (CDK9–cyclin T; Supplementary Table 2, read-out: Lanthascreen IC50 [nM] CDK9): 4480 nM | Lanthascreen TR-FRET signal (raw ratio), sheet CDK9 (CDK9–cyclin T; compound 0.038147 nM): 0.02012 and 0.0204 | Lanthascreen TR-FRET signal (raw ratio), sheet CDK9 (CDK9–cyclin T; compound 0.152588 nM): 0.02154 and 0.01902 | Lanthascreen TR-FRET signal (raw ratio), sheet CDK9 (CDK9–cyclin T; compound 0.610352 nM): 0.02155 and 0.01817 | Lanthascreen TR-FRET signal (raw ratio), sheet CDK9 (CDK9–cyclin T; compound 9.76563 nM): 0.02115 and 0.01877 | Lanthascreen TR-FRET signal (raw ratio), sheet CDK9 (CDK9–cyclin T; compound 39.0625 nM): 0.01878 and 0.01673 | Lanthascreen TR-FRET signal (raw ratio), sheet CDK9 (CDK9–cyclin T; compound 156.25 nM): 0.02006 and 0.01591 | Lanthascreen TR-FRET signal (raw ratio), sheet CDK9 (CDK9–cyclin T; compound 625 nM): 0.01306 and 0.01486 | Lanthascreen TR-FRET signal (raw ratio), sheet CDK9 (CDK9–cyclin T; compound 2500 nM): 0.01488 and 0.01061 | Lanthascreen TR-FRET signal (raw ratio), sheet CDK9 (CDK9–cyclin T; compound 10000 nM): 0.007693 and 0.006879 | Lanthascreen signal, sheet CDK2 (CDK2–cyclin A; Compound 0.038147 nM): 0.01344 and 0.01366 | Lanthascreen signal, sheet CDK2 (CDK2–cyclin A; Compound 0.152588 nM): 0.01349 and 0.01367 | Lanthascreen signal, sheet CDK2 (CDK2–cyclin A; Compound 0.610352 nM): 0.01404 and 0.01386 | Lanthascreen signal, sheet CDK2 (CDK2–cyclin A; Compound 9.76563 nM): 0.01422 and 0.01378 | Lanthascreen signal, sheet CDK2 (CDK2–cyclin A; Compound 39.0625 nM): 0.01396 and 0.01343 | Lanthascreen signal, sheet CDK2 (CDK2–cyclin A; Compound 156.25 nM): 0.01511 and 0.01391 | Lanthascreen signal, sheet CDK2 (CDK2–cyclin A; Compound 625 nM): 0.01354 and 0.01331 | Lanthascreen signal, sheet CDK2 (CDK2–cyclin A; Compound 2500 nM): 0.01311 and 0.01172 | Lanthascreen signal, sheet CDK2 (CDK2–cyclin A; Compound 10000 nM): 0.009843 and 0.008946 | IC50 (CDK2–cyclin A; Supplementary Table 2, read-out: Lanthascreen IC50 [nM] CDK2): 5730 nM
Structure (SMILES): CC(C)n1cnc2c(NCc3nc4cc(Cl)c(Cl)cc4[nH]3)nc(N3CCOCC3)nc21 [DS18]
EC50 (HEK293T cells; Homo sapiens, HEK-293T, HEK293T viability, 72 h, compound alone, read-out: Cellular assays EC50): 101 nM | Toxicity rescue (HEK293T cells; MLN4924-mediated cytotoxicity rescue, 10 µM used where n.d.): 89%

Reference: paper PMC10746543, “Design principles for cyclin K molecular glue degraders” (Nature Chemical Biology, 2023)
